Data published in US11191265B2, “Method of reducing crop damage” (Bayer CropScience Aktiengesellschaft, priority 2016, dated 2021).

How the values were obtained:
Type in all cases: in vivo
[1] = tested on: Wheat (winter wheat, TRZAW); assay: Prior-art method: post-emergence herbicide with or without safener in tank mix, greenhouse pot test, crop damage scored visually; details: 20 days after post-emergence application at BBCH11; herbicide 300 g/ha; safener (mefenpyr-diethyl) 200 g/ha in tank mix where combined; vs untreated controls; mean of at least 3 replicates
Description: 1. Method as Used in the Prior Art
(§1) Wheat seeds (winter wheat, TRZAW) were placed in sandy loam soil in pots of a diameter of 7 cm, covered with soil and cultivated in a greenhouse under good growth conditions.
Post-emergence application was done when the plants had reached growth stage BBCH11 (BBCH is the international coding system for the growth stage of crops and weeds).
(§2) The safener (mefenpyr-diethyl) was formulated as wettable powder (WP).
(§3) The compounds were sprayed onto the green parts of the plants as an aqueous suspension at an equivalent water application rate of 300 l/ha with addition of 0.2% wetting agent (Agrotin).
(§4) The combination of herbicide and safener was applied as a tank mix.
(§5) After application, the test plants were kept in the greenhouse under good growth conditions.
(§6) Values in the table below are mean values from at least 3 replicates.

[2] = tested on: Wheat (winter wheat, TRZAW); assay: Method A: safener seed treatment, then post-emergence herbicide, greenhouse pot test, crop damage scored visually; details: 20 days after post-emergence application at BBCH11; herbicide 300 g/ha; safener (mefenpyr-diethyl) seed treatment 0.5 g/kg where combined; vs untreated controls; mean of at least 3 replicates
Procedure: as §1
(§7) For the safener seed treatment, sufficient seeds were weighed into screw top glass bottles approximately twice the volume of the seeds.
(§8) The safener (mefenpyr-diethyl, formulated as wettable powder; WP) was weighed out so that the required rates (g a.i./kg seed) would be obtained, dissolved in water (1 ml water per 10 g of seeds), and added to the seeds to produce a slurry.
(§9) The bottles were capped and then placed in an overhead shaker (set at medium speed for up to 1 hour) so that the seeds were evenly coated with the slurry. The bottles were uncapped and the seeds were sown as described above.
Post-emergence application of the herbicide was done when the plants had reached growth stage BBCH11.
as §5, §6

[3] = tested on: Wheat (winter wheat, TRZAW); assay: Method C: safener seed treatment, then post-emergence herbicide plus safener tank mix, greenhouse pot test, crop damage scored visually; details: 20 days after post-emergence application at BBCH11; herbicide 300 g/ha; safener (mefenpyr-diethyl) seed treatment 0.5 g/kg and 200 g/ha in tank mix where combined; vs untreated controls; mean of at least 3 replicates
Procedure: as §1, §7, §8, §9
Post-emergence application was done when the plants had reached growth stage BBCH11.
as §2, §3, §4, §5, §6

[4] = tested on: Wheat (winter wheat, TRZAW); assay: Method D: safener seed treatment, then pre-emergence herbicide plus safener tank mix, greenhouse pot test, crop damage scored visually; details: 21 days after pre-emergence application to the soil surface; herbicide 300 g/ha; safener (mefenpyr-diethyl) seed treatment 0.5 g/kg and 200 g/ha in tank mix where combined; vs untreated controls; mean of at least 3 replicates
Procedure: as §1, §7, §8, §9
The compounds were sprayed to the soil surface as an aqueous suspension at an equivalent water application rate of 300 l/ha with addition of 0.2% wetting agent (Agrotin).
as §4, §5, §6

`CC1(C)CON(Cc2ccc(Cl)cc2Cl)C1=O` [Herbicide post-em., 2-(2,4-dichlorophenyl)methyl-4,4-dimethyl-3-isoxazolidinone] was tested, and the “% chlorosis” value [1] was 40%, the “% growth depression” value [1] was 40% and the “% chlorosis” value [2] was 40%. For the same compound, the “% growth depression” value [2] was 40%, the “% chlorosis” value [3] was 40% and the “% growth depression” value [3] was 40%. For the same compound, the “% chlorosis” value [4] was 17% and the “% growth depression” value [4] was 27%.
